# According to PubChem BioAssay AID256 (DTP/NCI, 2004):
# Where “and” joins values, the source holds several entries; their conditions need not be identical. Equal values may be shown once. Inconclusive results and toxic doses are left out.
# Test system: CD2F1 mice, L1210 leukemia ip, survival T/C
# Assay: NCI In Vivo Anticancer Drug Screen. Data for tumor model L1210 Leukemia (intraperitoneal) in CD2F1 (CDF1) mice
# Conditions: higher = longer survival
# Outline: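 Vehicle-treated tumor-bearing mice served as controls (C) for compound-treated mice (T). Reported figure is T divided by C.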
compound,measurement,setting,value
Cc1c2ccncc2c(C)c2c1[nH]c1ccccc12,T/C,"endpoint: mean survival time, dose: 2.0 mg/kg/injection, schedule: Q01DX009 (ip), vehicle: saline with Tween-80",113 % of control and 114 % of control and 105 % of control
same,T/C,"endpoint: mean survival time, dose: 3.13 mg/kg/injection, schedule: Q01DX009 (ip), vehicle: water",119 % of control
same,T/C,"endpoint: mean survival time, dose: 4.0 mg/kg/injection, schedule: Q01DX009 (ip), vehicle: saline with Tween-80",122 % of control and 124 % of control
same,T/C,"endpoint: mean survival time, dose: 6.25 mg/kg/injection, schedule: Q01DX009 (ip), vehicle: other",157 % of control
same,T/C,"endpoint: mean survival time, dose: 6.25 mg/kg/injection, schedule: Q01DX009 (ip), vehicle: water",151 % of control
same,T/C,"endpoint: mean survival time, dose: 6.25 mg/kg/injection, schedule: Q01DX009 (oral), vehicle: other",116 % of control
same,T/C,"endpoint: mean survival time, dose: 6.25 mg/kg/injection, schedule: Q01DX009 (oral), vehicle: saline",117 % of control
same,T/C,"endpoint: mean survival time, dose: 6.25 mg/kg/injection, schedule: Q01DX009 (oral), vehicle: water",123 % of control
same,T/C,"endpoint: mean survival time, dose: 6.25 mg/kg/injection, schedule: Q04DX003 (ip), vehicle: other",112 % of control
same,T/C,"endpoint: mean survival time, dose: 6.25 mg/kg/injection, schedule: Q04DX003 (ip), vehicle: water",108 % of control
same,T/C,"endpoint: mean survival time, dose: 10.0 mg/kg/injection, schedule: Q01DX001 (ip), vehicle: water",104 % of control
same,T/C,"endpoint: mean survival time, dose: 10.0 mg/kg/injection, schedule: Q01DX009 (ip), vehicle: saline with Tween-80",153 % of control
same,T/C,"endpoint: mean survival time, dose: 10.0 mg/kg/injection, schedule: Q04DX003 (ip), vehicle: saline with Tween-80",123 % of control
same,T/C,"endpoint: mean survival time, dose: 12.5 mg/kg/injection, schedule: Q01DX009 (ip), vehicle: other",198 % of control
same,T/C,"endpoint: mean survival time, dose: 12.5 mg/kg/injection, schedule: Q01DX009 (ip), vehicle: saline",180 % of control
same,T/C,"endpoint: mean survival time, dose: 12.5 mg/kg/injection, schedule: Q01DX009 (ip), vehicle: water",208 % of control
same,T/C,"endpoint: mean survival time, dose: 12.5 mg/kg/injection, schedule: Q01DX009 (oral), vehicle: saline",109 % of control
same,T/C,"endpoint: mean survival time, dose: 12.5 mg/kg/injection, schedule: Q04DX003 (ip), vehicle: distilled water + Tween-80",111 % of control
same,T/C,"endpoint: mean survival time, dose: 12.5 mg/kg/injection, schedule: Q04DX003 (ip), vehicle: saline with Tween-80",123 % of control
same,T/C,"endpoint: mean survival time, dose: 12.5 mg/kg/injection, schedule: Q04DX003 (ip), vehicle: water",122 % of control and 124 % of control
same,T/C,"endpoint: mean survival time, dose: 12.5 mg/kg/injection, schedule: Q04DX003 (oral), vehicle: other",103 % of control and 108 % of control
same,T/C,"endpoint: mean survival time, dose: 12.5 mg/kg/injection, schedule: Q04DX003 (oral), vehicle: saline",113 % of control and 107 % of control
same,T/C,"endpoint: mean survival time, dose: 12.5 mg/kg/injection, schedule: Q04DX003 (oral), vehicle: water",114 % of control and 109 % of control
same,T/C,"endpoint: mean survival time, dose: 20.0 mg/kg/injection, schedule: Q01DX001 (ip), vehicle: water",104 % of control
same,T/C,"endpoint: mean survival time, dose: 20.0 mg/kg/injection, schedule: Q01DX009 (ip), vehicle: saline with Tween-80",188 % of control and 205 % of control
same,T/C,"endpoint: mean survival time, dose: 20.0 mg/kg/injection, schedule: Q04DX003 (ip), vehicle: saline with Tween-80",157 % of control
same,T/C,"endpoint: mean survival time, dose: 25.0 mg/kg/injection, schedule: Q01DX009 (ip), vehicle: other",118 % of control
same,T/C,"endpoint: mean survival time, dose: 25.0 mg/kg/injection, schedule: Q01DX009 (ip), vehicle: saline",218 % of control
same,T/C,"endpoint: mean survival time, dose: 25.0 mg/kg/injection, schedule: Q01DX009 (ip), vehicle: water",100 % of control
same,T/C,"endpoint: mean survival time, dose: 25.0 mg/kg/injection, schedule: Q01DX009 (oral), vehicle: other",163 % of control
same,T/C,"endpoint: mean survival time, dose: 25.0 mg/kg/injection, schedule: Q01DX009 (oral), vehicle: water",159 % of control
same,T/C,"endpoint: mean survival time, dose: 25.0 mg/kg/injection, schedule: Q04DX003 (ip), vehicle: distilled water + Tween-80",121 % of control
same,T/C,"endpoint: mean survival time, dose: 25.0 mg/kg/injection, schedule: Q04DX003 (ip), vehicle: saline",156 % of control
same,T/C,"endpoint: mean survival time, dose: 25.0 mg/kg/injection, schedule: Q04DX003 (ip), vehicle: water",157 % of control and 190 % of control
same,T/C,"endpoint: mean survival time, dose: 25.0 mg/kg/injection, schedule: Q04DX003 (oral), vehicle: other",116 % of control
same,T/C,"endpoint: mean survival time, dose: 25.0 mg/kg/injection, schedule: Q04DX003 (oral), vehicle: saline",116 % of control and 118 % of control
same,T/C,"endpoint: mean survival time, dose: 25.0 mg/kg/injection, schedule: Q04DX003 (oral), vehicle: water",116 % of control
same,T/C,"endpoint: mean survival time, dose: 32.0 mg/kg/injection, schedule: Q01DX009 (ip), vehicle: saline with Tween-80",182 % of control
same,T/C,"endpoint: mean survival time, dose: 40.0 mg/kg/injection, schedule: Q01DX009 (ip), vehicle: saline with Tween-80",153 % of control
same,T/C,"endpoint: mean survival time, dose: 40.0 mg/kg/injection, schedule: Q04DX003 (ip), vehicle: saline with Tween-80",182 % of control and 202 % of control
same,T/C,"endpoint: mean survival time, dose: 50.0 mg/kg/injection, schedule: Q01DX009 (ip), vehicle: other",92 % of control
same,T/C,"endpoint: mean survival time, dose: 50.0 mg/kg/injection, schedule: Q01DX009 (ip), vehicle: saline",185 % of control
same,T/C,"endpoint: mean survival time, dose: 50.0 mg/kg/injection, schedule: Q01DX009 (ip), vehicle: water",87 % of control
same,T/C,"endpoint: mean survival time, dose: 50.0 mg/kg/injection, schedule: Q01DX009 (oral), vehicle: saline",152 % of control
same,T/C,"endpoint: mean survival time, dose: 50.0 mg/kg/injection, schedule: Q01DX009 (oral), vehicle: water",107 % of control
same,T/C,"endpoint: mean survival time, dose: 50.0 mg/kg/injection, schedule: Q04DX003 (ip), vehicle: distilled water + Tween-80",156 % of control
same,T/C,"endpoint: mean survival time, dose: 50.0 mg/kg/injection, schedule: Q04DX003 (ip), vehicle: saline with Tween-80",119 % of control
same,T/C,"endpoint: mean survival time, dose: 50.0 mg/kg/injection, schedule: Q04DX003 (ip), vehicle: saline",177 % of control
same,T/C,"endpoint: mean survival time, dose: 50.0 mg/kg/injection, schedule: Q04DX003 (ip), vehicle: water",186 % of control
same,T/C,"endpoint: mean survival time, dose: 50.0 mg/kg/injection, schedule: Q04DX003 (oral), vehicle: other",153 % of control
same,T/C,"endpoint: mean survival time, dose: 50.0 mg/kg/injection, schedule: Q04DX003 (oral), vehicle: saline",167 % of control
same,T/C,"endpoint: mean survival time, dose: 50.0 mg/kg/injection, schedule: Q04DX003 (oral), vehicle: water",152 % of control and 158 % of control
same,T/C,"endpoint: mean survival time, dose: 64.0 mg/kg/injection, schedule: Q01DX009 (ip), vehicle: saline with Tween-80",120 % of control and 102 % of control and 107 % of control
same,T/C,"endpoint: mean survival time, dose: 80.0 mg/kg/injection, schedule: Q01DX001 (ip), vehicle: water",162 % of control
same,T/C,"endpoint: mean survival time, dose: 100.0 mg/kg/injection, schedule: Q01DX001 (ip), vehicle: other",205 % of control
same,T/C,"endpoint: mean survival time, dose: 100.0 mg/kg/injection, schedule: Q01DX009 (oral), vehicle: saline",94 % of control
same,T/C,"endpoint: mean survival time, dose: 100.0 mg/kg/injection, schedule: Q04DX003 (ip), vehicle: distilled water + Tween-80",163 % of control and 177 % of control
same,T/C,"endpoint: mean survival time, dose: 100.0 mg/kg/injection, schedule: Q04DX003 (ip), vehicle: saline",216 % of control
same,T/C,"endpoint: mean survival time, dose: 100.0 mg/kg/injection, schedule: Q04DX003 (oral), vehicle: saline",163 % of control and 179 % of control
same,T/C,"endpoint: mean survival time, dose: 200.0 mg/kg/injection, schedule: Q01DX001 (ip), vehicle: other",224 % of control
same,T/C,"endpoint: mean survival time, dose: 200.0 mg/kg/injection, schedule: Q04DX003 (ip), vehicle: distilled water + Tween-80",113 % of control and 104 % of control
same,T/C,"endpoint: mean survival time, dose: 200.0 mg/kg/injection, schedule: Q04DX003 (oral), vehicle: other",113 % of control
same,T/C,"endpoint: mean survival time, dose: 200.0 mg/kg/injection, schedule: Q04DX003 (oral), vehicle: saline",122 % of control and 102 % of control
same,T/C,"endpoint: mean survival time, dose: 400.0 mg/kg/injection, schedule: Q01DX001 (ip), vehicle: other",186 % of control
same,T/C,"endpoint: mean survival time, dose: 400.0 mg/kg/injection, schedule: Q04DX003 (oral), vehicle: other",96 % of control
same,T/C,"endpoint: median survival time, dose: 10.0 mg/kg/injection, schedule: Q01DX001 (ip), vehicle: water",106 % of control
same,T/C,"endpoint: median survival time, dose: 20.0 mg/kg/injection, schedule: Q01DX001 (ip), vehicle: water",117 % of control
same,T/C,"endpoint: median survival time, dose: 80.0 mg/kg/injection, schedule: Q01DX001 (ip), vehicle: water",153 % of control
